Format in all cases: cell-based
One test deals with E. coli 58. Put plainly: In vitro antibacterial activity, two-fold agar-plate dilution method (MIC), E. coli 58. Conditions: Escherichia coli, heart infusion agar, 37° C., 20 hours, read-out: MIC (minimal inhibitory concentration). As for the experimental part:
(§1) Now in order to show the utility of the object compounds [I], the test data on MIC (minimal inhibitory concentration) of representative compounds [I] of this invention are shown in the following.
(§2) In vitro antibacterial activity was determined by the two-fold agar-plate dilution method as described below.
(§3) One loopful of an overnight culture of each test strain in Trypticase-soy broth (10^6 viable cells per ml) was streaked on heart infusion agar (HI-agar) containing graded concentrations of representative test compound, and the minimal inhibitory concentration (MIC) was expressed in terms of μg/ml after incubation at 37° C. for 20 hours.

A further test relates to S. aureus 209P JC-1. Put plainly: In vitro antibacterial activity, two-fold agar-plate dilution method (MIC), S. aureus 209P JC-1. Conditions: Staphylococcus aureus, heart infusion agar, 37° C., 20 hours, read-out: MIC (minimal inhibitory concentration). Here is the method:
as §1, §2, §3

The next test concerns P. mirabilis 1. Put plainly: In vitro antibacterial activity, two-fold agar-plate dilution method (MIC), P. mirabilis 1. The conditions noted are these: Proteus mirabilis, heart infusion agar, 37° C., 20 hours, read-out: MIC (minimal inhibitory concentration). Here is the method: as §1, §2, §3
For another test, the system named is E. coli 31. Put plainly: In vitro antibacterial activity, two-fold agar-plate dilution method (MIC), E. coli 31. The conditions noted are these: Escherichia coli, heart infusion agar, 37° C., 20 hours, read-out: MIC (minimal inhibitory concentration). As for the experimental part:
as §1, §2, §3

For a further test, the system named is P. vulgaris IAM 1025. Put plainly: In vitro antibacterial activity, two-fold agar-plate dilution method (MIC), P. vulgaris IAM 1025. Conditions: Proteus vulgaris, IAM1025, heart infusion agar, 37° C., 20 hours, read-out: MIC (minimal inhibitory concentration). Here is the method: as §1, §2, §3

Molecules are shown by their SMILES. Values after ≈ are worked out from the molar mass of the structure shown. A value given as a limit tells only on which side of the number the result lay.

With `Nc1nc(/C(=N/OC2CC2Cl)C(=O)N[C@@H]2C(=O)N3C(C(=O)O)=C(CSc4nncs4)CS[C@H]23)cs1` (single isomer, unassigned) [(7)], the MIC is 0.05 µg/mL (≈ 0.0871 µM) in the test on E. coli 58; 0.39 µg/mL (≈ 0.679 µM) with S. aureus 209P JC-1; 0.2 µg/mL (≈ 0.348 µM) in the test with P. mirabilis 1; not above 0.025 µg/mL in the test on E. coli 31; not above 0.025 µg/mL in the test with P. vulgaris IAM 1025.

For the compound `Nc1nc(/C(=N/OC2CC2)C(=O)N[C@@H]2C(=O)N3C(C(=O)[O-])=C(C[n+]4ccccc4)CS[C@H]23)cs1` [(1)], the MIC in the test on E. coli 58 is 0.05 µg/mL (≈ 0.0999 µM); in the test with S. aureus 209P JC-1, 0.39 µg/mL (≈ 0.779 µM); in the test on P. mirabilis 1, 0.1 µg/mL (≈ 0.2 µM); in the test on E. coli 31 it was not above 0.025 µg/mL; in the test on P. vulgaris IAM 1025 it was 0.05 µg/mL (≈ 0.0999 µM).

As to `Nc1nc(/C(=N/OC2CC2)C(=O)N[C@@H]2C(=O)N3C(C(=O)O)=C(CSc4nncs4)CS[C@H]23)cs1` [(2)], the MIC with E. coli 58 was not above 0.025 µg/mL; in the test with S. aureus 209P JC-1, 0.39 µg/mL (≈ 0.723 µM); in the test with P. mirabilis 1, 0.05 µg/mL (≈ 0.0927 µM); in the test with E. coli 31, not above 0.025 µg/mL; with P. vulgaris IAM 1025, not above 0.025 µg/mL.

As for `Cn1c(SCC2=C(C(=O)O)N3C(=O)[C@@H](NC(=O)/C(=N\OC4CC4)c4csc(N)n4)[C@H]3SC2)n[nH]c(=O)c1=O` [(3)], the MIC with E. coli 58 is not above 0.025 µg/mL; with S. aureus 209P JC-1 it was 0.39 µg/mL (≈ 0.672 µM); in the test with P. mirabilis 1, 0.05 µg/mL (≈ 0.0861 µM); in the test on E. coli 31, not above 0.025 µg/mL; in the test with P. vulgaris IAM 1025, 0.05 µg/mL (≈ 0.0861 µM).

As to `Nc1nc(/C(=N/OC2CC2)C(=O)N[C@@H]2C(=O)N3C(C(=O)O)=C(CSc4ccc5nnnn5n4)CS[C@H]23)cs1` [(4)], the MIC in the test on E. coli 58 is 0.05 µg/mL (≈ 0.087 µM); in the test with S. aureus 209P JC-1 it was 0.39 µg/mL (≈ 0.679 µM); with P. mirabilis 1 it was 0.1 µg/mL (≈ 0.174 µM); in the test with E. coli 31, not above 0.025 µg/mL; with P. vulgaris IAM 1025 it was 0.05 µg/mL (≈ 0.087 µM).

Consider `Nc1nc(/C(=N/OC2CC2)C(=O)N[C@@H]2C(=O)N3C(C(=O)O)=C(CSc4ncns4)CS[C@H]23)cs1` [(5)], for which the MIC was not above 0.025 µg/mL in the test with E. coli 58; 0.39 µg/mL (≈ 0.723 µM) in the test on S. aureus 209P JC-1; 0.05 µg/mL (≈ 0.0927 µM) in the test with P. mirabilis 1; not above 0.025 µg/mL in the test on E. coli 31; not above 0.025 µg/mL in the test with P. vulgaris IAM 1025.

As to `Nc1nc(/C(=N/OC2CC2(Cl)Cl)C(=O)N[C@@H]2C(=O)N3C(C(=O)[O-])=C(C[n+]4ccccc4)CS[C@H]23)cs1` (some centres unmarked) [(6)], the MIC stood at 0.2 µg/mL (≈ 0.351 µM) in the test with E. coli 58; 0.39 µg/mL (≈ 0.685 µM) in the test on S. aureus 209P JC-1; 1.56 µg/mL (≈ 2.74 µM) with P. mirabilis 1; 0.05 µg/mL (≈ 0.0878 µM) in the test on E. coli 31; 0.05 µg/mL (≈ 0.0878 µM) in the test with P. vulgaris IAM 1025.

As for `Nc1nc(/C(=N/OC2CC2)C(=O)N[C@@H]2C(=O)N3C(C(=O)O)=C(CSc4cnns4)CS[C@H]23)cs1` [(8)], the MIC is 0.05 µg/mL (≈ 0.0927 µM) with E. coli 58; 0.78 µg/mL (≈ 1.45 µM) in the test with S. aureus 209P JC-1; 0.1 µg/mL (≈ 0.185 µM) in the test with P. mirabilis 1; not above 0.025 µg/mL in the test on E. coli 31; 0.1 µg/mL (≈ 0.185 µM) in the test with P. vulgaris IAM 1025.

As to `CC(=O)OCC1=C(C(=O)O)N2C(=O)[C@@H](NC(=O)/C(=N\OC3CC3)c3csc(N)n3)[C@H]2SC1` [(9)], the MIC in the test with E. coli 58 was 0.05 µg/mL (≈ 0.104 µM); in the test on S. aureus 209P JC-1, 1.56 µg/mL (≈ 3.24 µM); with P. mirabilis 1, 0.05 µg/mL (≈ 0.104 µM); with E. coli 31 it was 0.05 µg/mL (≈ 0.104 µM); in the test with P. vulgaris IAM 1025, not above 0.025 µg/mL.

On to `Nc1nc(/C(=N/OC2CC2)C(=O)N[C@@H]2C(=O)N3C(C(=O)[O-])=C(C[n+]4ccccc4)CS[C@H]23)ns1` [(10)], for which the MIC in the test with E. coli 58 was 0.2 µg/mL (≈ 0.399 µM); in the test on S. aureus 209P JC-1, 0.78 µg/mL (≈ 1.56 µM); in the test with P. mirabilis 1, 0.2 µg/mL (≈ 0.399 µM); with E. coli 31, less than 0.025 µg/mL; in the test on P. vulgaris IAM 1025 it was 0.1 µg/mL (≈ 0.199 µM).

These data come from patent publication US4861769A, “Cephem compounds” (Fujisawa Pharmaceutical Co., Ltd., priority 1985, dated 1989).
